Assay results reported in patent US6251919A, “Heterocyclic substituted aniline calcium channel blockers” (Warner-Lambert, priority 1999, dated 2001).
“And” between values parts separate entries of the source, which are not always exact repeats. Equal values may be shown once.

Assays:
[1] = system: DBA/2 mice; experiment: Audiogenic seizure (anticonvulsant) test in DBA/2 mice; format: in vivo; conditions: Mus musculus, intravenous, read-out: DBA/2 mice % Protection
Protocol: A compound of the present invention was dissolved in water using 10% (weight/volume) Emulphor (GAF Corp., Wayne, N.J.) surfactant. Substances were administered by intravenous injection into the retro-orbital venous sinus. All testing was performed fifteen minutes or forty-five minutes after drug injection. All the male mice, 3-4 weeks old were obtained from Jackson Laboratories Bar Harbour, Me. Immediately before anticonvulsant testing, mice were placed upon a wire mesh, four inches square suspended from a steel rod. The square was slowly inserted through 180 degree and mice observed for thirty seconds. Any mouse falling from the wire mesh was scored as ataxia.
Mice were placed into an enclosed acrylic plastic chamber (21 cm height, approximately 30 cm diameter) with a high-frequency speaker (4 cm diameter) in the center of the top lid. An audio signal generator (Protek model B-810) was used to produe a continuous sinusoidal tone that was swept linearly in frequency between 8 kHz and 16 kHz once each 10 msec. The average sound pressure level (SPL) during stimulation was approximately 100 dB at the floor of the chamber. Mice were placed within the chamber and allowed to acclimatize for one minute. DBA/2 mice in the vehicle-treated group responded to the sound stimulus (applied until tonic extension occurred, or for a maximum of sixty seconds) with a characteristic seizure sequence consisting of wild running followed by clonic seizures and later by tonic extension, and finally by respiratory arrest and death in 80% or more of the mice. In vehicle-treated mice, the entire sequence of seizures to respiratory arrest lasts approximately 15-20 seconds.
The incidence of all the seizure phases in the drug-treated and vehicle-treated mice was recorded, and the occurrence of tonic seizures were used for calculating anticonvulsant ED50 values by probit analysis. Mice were used only once for testing at each time and dose point.

[2] = molecular target: T1, N-type Ca^2+ channel in IMR-32 cells (Homo sapiens, UniProt Q00975); experiment: N-type Ca2+ channel blockade in IMR-32 cells (fluorescent Ca2+ indicator Indo-1); format: cell-based; conditions: 5 μM nitrendipine present; for inhibition at 1 µM: IMR-32, 1 μM; for inhibition at 10 µM: IMR-32, 10 μM
T1 construct: host or cells: IMR-32 (differentiated with dibutyryl cAMP and bromodeoxyuridine)
T1 sequence (Q00975 whole entry): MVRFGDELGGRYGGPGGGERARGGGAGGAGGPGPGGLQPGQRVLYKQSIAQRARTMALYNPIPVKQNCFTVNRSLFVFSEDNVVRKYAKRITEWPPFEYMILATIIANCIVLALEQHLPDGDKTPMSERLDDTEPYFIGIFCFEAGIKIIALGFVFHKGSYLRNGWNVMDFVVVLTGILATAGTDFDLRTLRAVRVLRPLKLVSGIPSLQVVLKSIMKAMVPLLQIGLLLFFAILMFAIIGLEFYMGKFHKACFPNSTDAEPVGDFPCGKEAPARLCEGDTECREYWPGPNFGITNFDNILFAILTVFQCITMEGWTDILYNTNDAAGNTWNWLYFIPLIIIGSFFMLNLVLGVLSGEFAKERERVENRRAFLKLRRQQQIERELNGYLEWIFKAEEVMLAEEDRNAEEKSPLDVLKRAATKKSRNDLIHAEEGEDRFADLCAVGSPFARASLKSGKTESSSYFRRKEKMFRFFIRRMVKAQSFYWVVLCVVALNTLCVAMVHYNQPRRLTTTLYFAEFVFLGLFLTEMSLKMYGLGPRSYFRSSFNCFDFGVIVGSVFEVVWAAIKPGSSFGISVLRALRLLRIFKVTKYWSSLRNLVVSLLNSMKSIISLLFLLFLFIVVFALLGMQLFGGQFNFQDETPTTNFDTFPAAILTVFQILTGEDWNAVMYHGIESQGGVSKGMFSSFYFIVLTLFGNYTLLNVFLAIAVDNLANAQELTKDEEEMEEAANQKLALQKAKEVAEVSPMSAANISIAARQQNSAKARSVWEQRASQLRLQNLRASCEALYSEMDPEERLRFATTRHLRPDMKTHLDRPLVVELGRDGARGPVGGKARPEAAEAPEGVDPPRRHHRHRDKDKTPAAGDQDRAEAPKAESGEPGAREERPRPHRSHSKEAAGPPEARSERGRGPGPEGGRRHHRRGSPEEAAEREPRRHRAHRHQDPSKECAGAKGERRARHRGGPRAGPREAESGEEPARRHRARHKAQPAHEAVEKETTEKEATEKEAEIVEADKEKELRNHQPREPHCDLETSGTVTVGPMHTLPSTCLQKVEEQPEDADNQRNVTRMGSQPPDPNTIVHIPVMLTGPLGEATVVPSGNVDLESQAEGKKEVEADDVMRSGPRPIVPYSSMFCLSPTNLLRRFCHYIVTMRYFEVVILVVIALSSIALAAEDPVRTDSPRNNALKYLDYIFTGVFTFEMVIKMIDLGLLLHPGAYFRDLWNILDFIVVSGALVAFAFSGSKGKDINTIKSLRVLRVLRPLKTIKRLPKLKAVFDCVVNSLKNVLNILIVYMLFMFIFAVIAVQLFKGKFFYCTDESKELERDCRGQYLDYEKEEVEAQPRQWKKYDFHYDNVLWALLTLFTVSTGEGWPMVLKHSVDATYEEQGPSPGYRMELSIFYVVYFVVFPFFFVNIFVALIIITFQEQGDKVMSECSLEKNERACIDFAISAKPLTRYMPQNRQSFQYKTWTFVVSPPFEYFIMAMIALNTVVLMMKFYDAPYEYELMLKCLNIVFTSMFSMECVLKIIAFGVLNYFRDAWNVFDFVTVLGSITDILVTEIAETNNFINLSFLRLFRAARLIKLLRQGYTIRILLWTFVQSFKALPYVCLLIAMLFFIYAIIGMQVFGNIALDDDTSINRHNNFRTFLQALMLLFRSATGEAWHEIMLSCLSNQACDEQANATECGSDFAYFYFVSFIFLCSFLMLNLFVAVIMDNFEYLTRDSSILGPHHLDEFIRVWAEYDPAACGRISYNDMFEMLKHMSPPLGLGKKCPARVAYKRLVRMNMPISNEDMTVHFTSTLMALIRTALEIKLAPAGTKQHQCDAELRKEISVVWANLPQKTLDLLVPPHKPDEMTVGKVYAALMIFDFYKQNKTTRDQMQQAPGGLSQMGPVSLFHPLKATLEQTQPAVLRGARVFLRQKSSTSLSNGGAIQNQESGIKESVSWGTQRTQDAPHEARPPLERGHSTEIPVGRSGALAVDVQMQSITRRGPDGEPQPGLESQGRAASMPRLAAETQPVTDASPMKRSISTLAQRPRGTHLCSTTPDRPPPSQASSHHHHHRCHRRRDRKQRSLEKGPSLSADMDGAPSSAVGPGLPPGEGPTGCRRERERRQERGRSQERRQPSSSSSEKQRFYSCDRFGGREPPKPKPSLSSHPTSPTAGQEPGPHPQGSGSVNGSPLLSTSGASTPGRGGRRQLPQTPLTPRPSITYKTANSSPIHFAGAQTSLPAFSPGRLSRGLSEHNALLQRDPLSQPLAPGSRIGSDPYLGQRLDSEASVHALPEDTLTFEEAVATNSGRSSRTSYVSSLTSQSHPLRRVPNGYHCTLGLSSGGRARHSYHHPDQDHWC

Question: With `CC(C)=CCN(c1ccc(OCc2ccccc2)cc1)C1CCN(CCC(C)C)CC1` [Example 1, (4-Benzyloxy-phenyl)-(3-methyl-but-2-enyl)-[1-(3-methyl-butyl)-piperidin-4-yl]-amine] as the compound, how does the responders at 30 mg/kg [1] read?
Answer: Its responders at 30 mg/kg is 100%.

Question: And the inhibition at 1 µM [2]?
Answer: Its inhibition at 1 µM is 40%.

Question: And the inhibition at 10 µM [2]?
Answer: Its inhibition at 10 µM is 79%.

Question: Which results are given for `CC(C)=CCN(c1ccc(OCc2ccccc2)cc1)C1CCN(CCC(C)(C)C)CC1` [Example 2, (4-Benzyloxy-phenyl)-[1-(3,3-dimethyl-butyl)-piperidin-4-yl]-(3-methyl-but-2-enyl)-amine]?
Answer: responders at 10 mg/kg [1]: 80%; inhibition at 1 µM [2]: 62%; inhibition at 10 µM [2]: 93%

Question: How did the responders at 10 mg/kg [1] turn out when `CC(C)=CCN(c1ccc(OCc2ccccc2)cc1)C1CCN(Cc2ccc(O)cc2)CC1` [Example 5, 4-{4-[(4-Benzyloxy-phenyl)-(3-methyl-but-2-enyl)-amino]-piperidin-1-ylmethyl}-phenol] was run?
Answer: Its responders at 10 mg/kg is 80%.

Question: What about the inhibition at 1 µM [2] of the same compound?
Answer: Its inhibition at 1 µM is 47%.

Question: What about the inhibition at 10 µM [2] of the same compound?
Answer: The inhibition at 10 µM was 100%.

Question: For `CC(C)=CCN(c1ccc(OCc2ccccc2)cc1)C1CCN(Cc2ccc(N(C)C)cc2)CC1` [Example 6, (4-Benzyloxy-phenyl)-[1-(4-dimethylamino-benzyl)-piperidin-4-yl]-(3-methyl-but-2-enyl)-amine], which responders at 10 mg/kg [1] is on record?
Answer: Its responders at 10 mg/kg is 100%.

Question: What about the responders at 30 mg/kg [1] of the same compound?
Answer: Its responders at 30 mg/kg is 100%.

Question: Which results are given for `CC(C)=CCN(c1ccc(OCc2ccccc2)cc1)C1CCN(Cc2ccc[nH]2)CC1` [Example 7, (4-Benzyloxy-phenyl)-(3-methyl-but-2-enyl)-[1-(1H-pyrrol-2-ylmethyl)-piperidin-4-yl]-amine]?
Answer: responders at 10 mg/kg [1]: 100%; responders at 30 mg/kg [1]: 100%

Question: How did the IC50 [2] turn out when `CC(C)=CCN(c1ccc(OCc2ccccc2)cc1)C1CCN(CCCc2ccccc2)CC1` [Example 22, (4-Benzyloxy-phenyl)-(3-methyl-but-2-enyl)-[1-(3-phenyl-propyl)-piperidin-4-yl]-amine] was run?
Answer: The IC50 was 500 nM.

Question: With `CC(C)=CCN(c1ccc(OCc2ccccc2)cc1)C1CCN(CCc2ccccc2)CC1` [Example 23, (4-Benzyloxy-phenyl)-(3-methyl-but-2-enyl)-(1-phenethyl-piperidin-4-yl)-amine] as the compound, how does the IC50 [2] read?
Answer: Its IC50 is 300 nM.

Question: Which IC50 [2] does the source give for `CC(C)=CCN(c1ccc(OCc2ccccc2)cc1)C1CCN(Cc2ccc(S(C)(=O)=O)cc2)CC1` [Example 24] here?
Answer: The IC50 was 1800 nM.

Question: `CC(C)=CCN(c1ccc(OCc2ccccc2)cc1)C1CCN(Cc2ccc(F)cc2)CC1` [Example 25, (4-Benzyloxy-phenyl)-[1-(4-fluoro-benzyl)-piperidin4-yl]-(3-methyl-but-2-enyl)-amine] was tested. Which inhibition at 1 µM [2] did it give?
Answer: Its inhibition at 1 µM is 62%.

Question: Which inhibition at 1 µM [2] does the source give for `CC(C)=CCN(c1ccc(C(C)C)cc1)C1CCN(CCC(C)(C)C)CC1` [Example 26, [1-(3,3-Dimethyl-butyl)-piperidin-4-yl]-(4-isopropyl-phenyl)-(3-methyl-but-2-enyl)-amine] here?
Answer: The inhibition at 1 µM was 43%.

Question: `CC(C)=CCN(c1ccc(C(C)C)cc1)C1CCN(CCC(C)O)CC1` (stereo not drawn) [Example 27, 4-{4[(4Isopropyl-phenyl)-(3-methyl-but-2-enyl)-amino]-piperidin-1-yl}-butan-2ol] was tested. Which inhibition at 1 µM [2] did it give?
Answer: The inhibition at 1 µM was 15%.

Question: `CC(C)=CCN(c1ccc(C(C)C)cc1)C1CCN(CCC(C)C)CC1` [Example 28, (4-Isopropyl-phenyl)-(3-methyl-but-2-enyl)-[1-(3-methyl-butyl)-piperidin-4-yl]-amine] was tested. Which inhibition at 1 µM [2] did it give?
Answer: Its inhibition at 1 µM is 41%.

Question: `CC(C)=CCN(c1ccc(C(C)C)cc1)C1CCN(Cc2ccc(F)cc2)CC1` [Example 29, [1-(4-Fluoro-benzyl)-piperidin-4-yl]-(4-isopropyl-phenyl)-(3-methyl-but-2-enyl)-amine] was tested. Which inhibition at 1 µM [2] did it give?
Answer: The inhibition at 1 µM was 17%.

Question: What about the inhibition at 10 µM [2] of the same compound?
Answer: The inhibition at 10 µM was 84%.

Question: Which results are given for `CC(C)=CCN(c1ccc(C(C)C)cc1)C1CCN(Cc2cccnc2)CC1` [Example 30, (4-Isopropyl-phenyl)-(3-methyl-but-2-enyl)-(1-pyridin-3-ylmethyl-piperidin-4-yl)-amine]?
Answer: inhibition at 1 µM [2]: 18%; inhibition at 10 µM [2]: 79%

Question: With `CC(C)=CCN(c1ccc(C(C)C)cc1)C1CCN(Cc2c[nH]cn2)CC1` [Example 31, [1-(1H-Imidazol-4-ylmethyl)-piperidin-4-yl]-(4-isopropyl-phenyl)-(3-methyl-but-2-enyl)-amine] as the compound, how does the inhibition at 1 µM [2] read?
Answer: Its inhibition at 1 µM is 7%.

Question: What about the inhibition at 10 µM [2] of the same compound?
Answer: The inhibition at 10 µM was 62%.

Question: With `CC(C)=CCN(c1ccc(C(C)C)cc1)C1CCN(C(C)CO)CC1` (stereo not drawn) [Example 32, 2-{4-[(4-lsopropyl-phenyl)-(3-methyl-but-2-enyl)-amino]-piperidin-1-yl}-propan-1-ol] as the compound, how does the inhibition at 1 µM [2] read?
Answer: Its inhibition at 1 µM is 0%.

Question: And the inhibition at 10 µM [2]?
Answer: Its inhibition at 10 µM is 70%.

Question: With `CC(C)=CCN(c1ccc(C(C)C)cc1)C1CCN(Cc2ccc[nH]2)CC1` [Example 33, (4-Isopropyl-phenyl)-(3-methyl-but-2-enyl)-[1-(1H-pyrrol-2-ylmethyl)-piperidin-4-yl]-amine] as the compound, how does the inhibition at 1 µM [2] read?
Answer: Its inhibition at 1 µM is 54%.

Question: And the inhibition at 10 µM [2]?
Answer: The inhibition at 10 µM was 98%.

Question: For `CC(C)=CCN(c1ccc(OC(C)C)cc1)C1CCN(CCC(C)C)CC1` [Example 34, (4-Isopropoxy-phenyl)-(3-methyl-but-2-enyl)-[1-(3-methyl-butyl)-piperidin-4-yl]-amine], which inhibition at 1 µM [2] is on record?
Answer: Its inhibition at 1 µM is 23%.

Question: And the inhibition at 10 µM [2]?
Answer: Its inhibition at 10 µM is 76%.

Question: How did the inhibition at 1 µM [2] turn out when `CC(C)=CCN(c1ccc(OC(C)C)cc1)C1CCN(Cc2ccc(F)cc2)CC1` [Example 35, [1-(4-Fluoro-benzyl)-piperidin-4-yl]-(4-isopropoxy-phenyl)-(3-methyl-but-2-enyl)-amine] was run?
Answer: Its inhibition at 1 µM is 37%.

Question: `CC(C)=CCN(c1ccc(OC(C)C)cc1)C1CCN(CCC(C)(C)C)CC1` [Example 36] was tested. Which inhibition at 1 µM [2] did it give?
Answer: The inhibition at 1 µM was 26%.

Question: What about the inhibition at 10 µM [2] of the same compound?
Answer: The inhibition at 10 µM was 74%.

Question: What does the source list for `CC(C)=CCN(c1ccc(CCC(C)(C)C)cc1)C1CCN(CCC(C)C)CC1` [Example 37, [4-(3,3-Dimethyl-butyl)-phenyl]-(3-methyl-but-2-enyl)-[1-(3-methyl-butyl)-piperidin-4-yl]-amine]?
Answer: inhibition at 1 µM [2]: 31%; inhibition at 10 µM [2]: 92%

Question: `CC(C)=CCN(c1ccc(CCC(C)(C)C)cc1)C1CCN(CCC(C)(C)C)CC1` [Example 38, [4-(3,3-Dimethyl-butyl)-phenyl]-[1-(3,3-dimethyl-butyl)-piperidin-4-yl]-(3-methyl-but-2-enyl)-amine] was tested. Which inhibition at 1 µM [2] did it give?
Answer: Its inhibition at 1 µM is 38%.

Question: What about the inhibition at 10 µM [2] of the same compound?
Answer: Its inhibition at 10 µM is 83%.

Question: With `CC(C)=CCN(c1ccc(CCC(C)(C)C)cc1)C1CCN(Cc2ccc(N(C)C)cc2)CC1` [Example 39, [1-(4-Dimethylamino-benzyl)-piperidin-4-yl]-[4-(3,3-dimethyl-butyl)-phenyl]-(3-methyl-but-2-enyl)-amine] as the compound, how does the “IMR 32 % of Blockade @ 1 μM” value ([2]; 1 μM) read?
Answer: The value was 85% and 60%.

Question: For `CC(C)CCN1CCC(N(CCC(C)C)c2ccc(OCC3CCCCC3)cc2)CC1` [Example 40, (4-Cyclohexylmethoxy-phenyl)-(3-methyl-butyl)-[1-(3-methyl-butyl)-piperidin-4-yl]-amine], which inhibition at 1 µM [2] is on record?
Answer: Its inhibition at 1 µM is 72%.

Question: Which IC50 [2] does the source give for `CC(C)CCN(c1ccc(OCC2CCCCC2)cc1)C1CCN(CCC(C)O)CC1` (stereo not drawn) [Example 41, 4-{4-[(4-Cyclohexylmethoxy-phenyl)-(3-methyl-butyl)-amino]-piperidin-1-yl}-butan-2-ol] here?
Answer: The IC50 was 1500 nM.

Question: How did the inhibition at 1 µM [2] turn out when `CC(C)CCN(c1ccc(OCC2CCCCC2)cc1)C1CCN(CCC(C)(C)C)CC1` [Example 42, (4-Cyclohexylmethoxy-phenyl)-[1-(3,3-dimethyl-butyl)-piperidin-4-yl]-(3-methyl-butyl)-amine] was run?
Answer: The inhibition at 1 µM was 60%.

Question: What about the inhibition at 10 µM [2] of the same compound?
Answer: The inhibition at 10 µM was 81%.

Question: How did the inhibition at 1 µM [2] turn out when `CC(C)CCN(c1ccc(OCc2ccc(F)cc2)cc1)C1CCN(CCC(C)(C)C)CC1` [Example 43, [1-(3,3-Dimethyl-butyl)-piperidin-4-yl]-[4-(4-fluoro-benzyloxy)-phenyl]-(3-methyl-butyl)-amine] was run?
Answer: Its inhibition at 1 µM is 65%.

Question: What about the inhibition at 10 µM [2] of the same compound?
Answer: The inhibition at 10 µM was 99%.

Question: `CC(C)=CCN(c1ccc(C(C)C)cc1)C1CCN(C(=O)[C@@H](O)CC(C)C)CC1` [Example 45, (S)-2-Hydroxy-1-{4-[(4-isopropyl-phenyl)-(3-methyl-but-2-enyl)-arnino]-piperidin-1-yl}-4-methyl-pentan-1-one] was tested. Which inhibition at 1 µM [2] did it give?
Answer: Its inhibition at 1 µM is 28%.

Question: And the inhibition at 10 µM [2]?
Answer: The inhibition at 10 µM was 85%.

Question: With `CC(C)=CCN(c1cccc(OCc2ccccc2)c1)C1CCN(CCC(C)(C)C)CC1` [Example 46, (3-Benzyloxy-phenyl)-[1-(3,3-dimethyl-butyl)-piperidin-4-yl]-(3-methyl-but-2-enyl)-amine] as the compound, how does the inhibition at 1 µM [2] read?
Answer: Its inhibition at 1 µM is 55%.

Question: What about the inhibition at 10 µM [2] of the same compound?
Answer: Its inhibition at 10 µM is 98%.

Question: For `CC(C)=CCN(c1ccc(CCC(C)(C)C)cc1)C1CCN(Cc2ccc[nH]2)CC1` [Example 47, [4-(3,3-Dimethyl-butyl)-phenyl]-(3-methyl-but-2-enyl)-[1-(1H-pyrrol-2-ylmethyl)-piperidin-4-yl]-amine], which IC50 [2] is on record?
Answer: The IC50 was 900 nM.

Question: `CC(C)=CCN(c1ccc(OCc2ccccc2)cc1)C1CCCN(Cc2ccccc2)C1` (stereo not drawn) [Example 49, (4-Benzyloxy-phenyl)-(1-benzyl-piperidin-3-yl)-(3-methyl-but-2-enyl)-amine] was tested. Which IC50 [2] did it give?
Answer: The IC50 was 1200 nM.

Question: With `CC(C)=CCN(c1ccc(OCc2ccccc2)cc1)C1CCCN(Cc2ccc(C(C)(C)C)cc2)C1` (stereo not drawn) [Example 50, (4-Benzyloxy-phenyl)-[1-(4-tert-butyl-benzyl)-piperidin-3-yl]-(3-methyl-but-2-enyl)-amine] as the compound, how does the inhibition at 1 µM [2] read?
Answer: The inhibition at 1 µM was 86%.

Question: What about the inhibition at 10 µM [2] of the same compound?
Answer: The inhibition at 10 µM was 96%.
